This note sets out measurements from patent publication EP4800012A1, “COMPOUND ACTING AS PARP7 INHIBITOR” (Dovetree Medicines Unus, Inc., priority 2023, dated 2025).

For experiment [1], the target named is T1, PARP7 (Homo sapiens, UniProt Q7Z3E1).
T1 construct: purchased BPS 80527
T1 sequence (Q7Z3E1 1-657): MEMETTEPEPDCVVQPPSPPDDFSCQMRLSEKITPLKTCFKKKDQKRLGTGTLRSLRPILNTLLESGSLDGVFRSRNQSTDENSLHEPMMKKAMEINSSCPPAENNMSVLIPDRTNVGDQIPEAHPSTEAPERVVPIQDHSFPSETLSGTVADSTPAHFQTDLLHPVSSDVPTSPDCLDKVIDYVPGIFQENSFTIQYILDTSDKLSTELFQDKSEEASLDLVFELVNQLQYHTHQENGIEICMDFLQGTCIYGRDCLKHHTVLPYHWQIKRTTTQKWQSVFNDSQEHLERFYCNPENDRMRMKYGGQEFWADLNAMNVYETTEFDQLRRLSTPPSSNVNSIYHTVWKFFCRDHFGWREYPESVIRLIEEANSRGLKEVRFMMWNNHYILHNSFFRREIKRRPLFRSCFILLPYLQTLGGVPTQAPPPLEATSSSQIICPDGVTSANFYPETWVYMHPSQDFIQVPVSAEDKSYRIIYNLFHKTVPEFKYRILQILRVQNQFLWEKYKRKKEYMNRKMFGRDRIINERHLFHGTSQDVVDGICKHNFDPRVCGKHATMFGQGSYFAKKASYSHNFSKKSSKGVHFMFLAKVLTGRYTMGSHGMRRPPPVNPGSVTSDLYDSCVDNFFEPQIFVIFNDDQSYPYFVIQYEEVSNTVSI
Nature of the experiment: Inhibition of the compound on PARP7 protein activity (ADP-ribosylation, chemiluminescence). The following applies: Histone H1 coated plate, Biotin-Labeled NAD+, 2 h at room temperature, chemiluminescence; read-out: PARP7 activity inhibition IC50. It is filed as biochemical.

The target of experiment [2] is T1, PARP7. Nature of the experiment: PARP7 TR-FRET binding inhibition (displacement of probe RBN011147). The following applies: TR-FRET, Biotin-labeled probe RBN011147; read-out: PARP7 binding inhibition IC50. As to the method:
The ability of the compound to substitute the probe RBN011147 (Wigle et al., 2020, Cell Chemical Biology 27, 877-887) was tested by a TR-FRET method, and IC50 was calculated to evaluate the binding ability of the compound to PARP7. […]
(In general: In TR-FRET formats the signal depends on donor and acceptor labels being close together.)

Experiment [3] concerns NCI-H1373 cells. Nature of the experiment: Inhibition on NCI-H1373 cell proliferation (Cell-Titer-Glo). The format is cell-based. The following applies: Homo sapiens, 144 h; NCI-H1373 cells, incubation for 6 days, Cell-Titer-Glo; read-out: NCI-H1373 cell proliferation inhibition IC50. As for the experimental part: The inhibitory effect of the compound on PARP7 was evaluated by testing the inhibitory effect of the compound on NCI-H1373 cell proliferation.
NCI-H1373 cells (ATCC, CRL-5866) were cultured in a complete medium, namely, a RPMI-1640 medium (Gibco, 22400089) containing 10% fetal bovine serum (Corning, 35-081-CV).
Negative control wells and positive control wells were added with 50 nL DMSO (Sigma, D2650), respectively.
In "Day 0" detection plate, NCI-H1373 cells were seeded at a density of 600 cells/well (50 µL) in a complete medium into the Day 0 test wells of a 384-well detection plate (Grenier, 781091). Then, 25 µL of Cell-Titer-Glo reagent (Promega, G7573) was added to each well, followed by centrifugation at 1000 rpm at room temperature for 1 minute and incubation at room temperature under shaded conditions for 10 min. Chemiluminescence signals were collected using an Envision (Perkin Elmer, EnVision 2105) to obtain the average value of the Day 0 test values.
In "compound detection plate", NCI-H1373 cells were seeded at a density of 600 cells/well (50 µL) in a complete medium into the negative control wells and the compound detection wells of a 384-well detection plate (Grenier, 781091), and 50 µL of cell culture medium was added to the positive control wells, followed by centrifugation at 1000 rpm at room temperature for 1 minute and placing in a cell incubator at 37°C, 5% CO2 for incubation for 6 days. […] Chemiluminescence signals were collected using an Envision (Perkin Elmer, EnVision 2105). The test values for each compound well, negative control well, and positive control well were obtained.
The proliferation inhibition ratio formula is as follows: [formula]
The average value of the negative control = the average value of the Day 6 test values of each negative control well minus the average value of the Day 0 test values
The average value of the positive control = the average value of the Day 6 test values of each positive control well
The average value of the compound test = (the Day 6 test value of compound test well 1 + the Day 6 test value of compound test well 2)/2 - the average value of the Day 0 test values

Structures are written as SMILES. Bounds are passed on as bounds.

For `Cc1cc(NC(C)CCCN(C)C(=O)c2ccc(-c3ncc(C(F)(F)F)cn3)cc2O)c(C#N)c(=O)[nH]1` (stereo not drawn) [Example 33], the IC50 in experiment [1] was 30 to 100 nM; in experiment [2] it was over 100 nM.

Regarding `CC(COCc1cc(-c2cnc(C(F)(F)F)nc2)sn1)Nc1cn[nH]c(=O)c1C(F)(F)F` (stereo not drawn) [Example 251], the IC50 in experiment [3] is over 3000 nM; in experiment [2], over 100 nM.

On to `CC(CCCN(C)C(=O)c1cnc(N2CCOCC2)cn1)Nc1cn[nH]c(=O)c1C(F)(F)F` (stereo not drawn) [Example 36], for which the IC50 in experiment [1] is 30 to 100 nM; in experiment [2] it was over 100 nM.

In the case of `CC(CCCNC(=O)c1ccc(-c2ncc(C(F)(F)F)s2)cc1F)Nc1cc[nH]c(=O)c1C#N` (stereo not drawn) [Example 71], the IC50 in experiment [1] and in experiment [2] was over 100 nM each time.

With `NC(=O)c1cccc2cn(CCCNC(=O)c3ncc(-c4ncc(C(F)(F)F)s4)cc3F)nc12` [Example 249], the figures for the IC50 in experiment [3] and in experiment [2] were over 3000 nM and 30 to 100 nM, respectively.

In the case of `C[C@H]1CCN1C(=O)[C@@H](CCCNC(=O)c1ccc(-c2ncc(C(F)(F)F)s2)cc1)Nc1cn[nH]c(=O)c1C(F)(F)F` [Example 240], the IC50 in experiment [3] was over 3000 nM; in experiment [2], 10 to 30 nM.

For the molecule `CC[C@@H]1CN(C(=O)[C@@H](CCCNC(=O)c2ccc(-c3ncc(C(F)(F)F)s3)cc2)Nc2cn[nH]c(=O)c2C(F)(F)F)CCO1` [Example 262], the IC50 was under 300 nM in experiment [3] and 10 to 30 nM in experiment [2].

Regarding `CC1(NC(=O)[C@@H](CCCNC(=O)c2ccc(-c3ncc(C(F)(F)F)s3)cc2)Nc2cn[nH]c(=O)c2C(F)(F)F)CCOCC1` [Example 227], the IC50 in experiment [3] was under 300 nM; in experiment [2], under 10 nM.

Take `N#C[C@@H]1CCCN(C(=O)[C@@H](CCCNC(=O)c2ccc(-c3ncc(C(F)(F)F)s3)cc2)Nc2cn[nH]c(=O)c2C(F)(F)F)C1` [Example 260]: the results for the IC50 in experiment [3] and in experiment [2] were 1000 to 3000 nM and 10 to 30 nM, respectively.

As to `O=C(NCCC[C@@H](Nc1cn[nH]c(=O)c1C(F)(F)F)C(=O)N1CCC2(CC2)C1)c1ccc(-c2ncc(C(F)(F)F)s2)cc1` [Example 220], the figures for the IC50 in experiment [3] and in experiment [2] were under 300 nM and under 10 nM, respectively.

As for `O=C(NCC1CC(Nc2cn[nH]c(=O)c2C(F)(F)F)C1)c1ccc(-c2ncc(C(F)(F)F)cn2)cc1` (stereo not drawn) [Example 226], the IC50 in experiment [2] is over 100 nM.

`NC(=O)c1cccc2cn(CCCn3cnc4cc(-c5ncc(C(F)(F)F)cn5)c(F)cc4c3=O)nc12` [Example 252]: the IC50 in experiment [3] is over 3000 nM; in experiment [2] it was over 100 nM.

On to `CC(CCCn1ccc2cc(-c3ncc(C(F)(F)F)s3)cnc2c1=O)Nc1cn[nH]c(=O)c1C(F)(F)F` (stereo not drawn) [Example 253], for which the IC50 was 1000 to 3000 nM in experiment [3] and under 10 nM in experiment [2].

For `O=C(CCc1c[nH]c(=O)c2ccccc12)Nc1ccc(-c2ncc(C(F)(F)F)cn2)cc1` [Example 12], the IC50 was in the range of 3 to 10 nM in experiment [1] and 10 to 30 nM in experiment [2].

On to `C[C@@H]1CCN(C(=O)[C@@H](CCCNC(=O)c2ccc(-c3ncc(C(F)(F)F)s3)cc2)Nc2cn[nH]c(=O)c2C(F)(F)F)C1` [Example 225], for which the IC50 was under 300 nM in experiment [3] and under 10 nM in experiment [2].

Regarding `CC(CC1CN(C(=O)c2ccc(-n3cc(C(F)(F)F)cn3)cc2)C1)Nc1cn[nH]c(=O)c1C(F)(F)F` (stereo not drawn) [Example 218], the IC50 in experiment [2] was over 100 nM.

For the molecule `COC1CN(C(=O)[C@@H](CCCNC(=O)c2ccc(-c3ncc(C(F)(F)F)s3)cc2)Nc2cn[nH]c(=O)c2C(F)(F)F)C1` [Example 256], the figures for the IC50 in experiment [3] and in experiment [2] were 300 to 1000 nM and under 10 nM, respectively.

With `O=C(NCCC[C@@H](Nc1cn[nH]c(=O)c1C(F)(F)F)C(=O)Nc1cccnc1)c1ccc(-c2ncc(C(F)(F)F)s2)cc1` [Example 234], the IC50 in experiment [3] is 300 to 1000 nM; in experiment [2] it was under 10 nM.

For the molecule `O=C(c1ccc(-c2ncc(C(F)(F)F)s2)cc1)N1CC2(CC(Nc3cn[nH]c(=O)c3C(F)(F)F)C2)C1` [Example 219], in experiment [2], the IC50 is over 100 nM.

Turning to `Cc1c(-c2cnc(C(F)(F)F)s2)ncn(CCCC(C)Nc2cn[nH]c(=O)c2C(F)(F)F)c1=O` (stereo not drawn) [Example 248], the figures for the IC50 in experiment [3] and in experiment [2] were over 3000 nM and 30 to 100 nM, respectively.

On to `O=C(NCCC1CC(OC2CC2)CN1c1cn[nH]c(=O)c1C(F)(F)F)c1ccc(-c2ncc(C(F)(F)F)s2)cn1` (stereo not drawn) [Example 138], for which the IC50 in experiment [2] is over 100 nM.

For the molecule `O=C(NCC1CC(Nc2cn[nH]c(=O)c2C(F)(F)F)C1)c1ccc(-c2ncc(C(F)(F)F)s2)cc1` (stereo not drawn) [Example 129], in experiment [2], the IC50 was over 100 nM.

With `CCN(C)C(=O)[C@@H](CCCNC(=O)c1ccc(-c2ncc(C(F)(F)F)s2)cc1)Nc1cn[nH]c(=O)c1C(F)(F)F` [Example 259], the IC50 in experiment [3] is under 300 nM; in experiment [2], under 10 nM.

In the case of `Cc1cnc(-c2cnc(C(=O)NCCCC(C)Nc3cn[nH]c(=O)c3C(F)(F)F)cn2)s1` (stereo not drawn) [Example 24], the IC50 in experiment [3] is over 3000 nM; in experiment [2], 10 to 30 nM.

For the molecule `CC(CCNC(=O)c1n[nH]c2cc(-c3ncc(C(F)(F)F)cn3)ccc12)Nc1cn[nH]c(=O)c1C(F)(F)F` (stereo not drawn) [Example 7], the IC50 in experiment [3] was over 3000 nM; in experiment [2], 30 to 100 nM.

Turning to `CC(C)NC(=O)[C@@H](CCCNC(=O)c1ccc(-c2ncc(C(F)(F)F)s2)cc1)Nc1cn[nH]c(=O)c1C(F)(F)F` [Example 258], the values for the IC50 in experiment [3] and in experiment [2] were under 300 nM and under 10 nM, respectively.

For `COC1CCN(C(=O)[C@@H](CCCNC(=O)c2ccc(-c3ncc(C(F)(F)F)s3)cc2)Nc2cn[nH]c(=O)c2C(F)(F)F)CC1` [Example 255], the figures for the IC50 in experiment [3] and in experiment [2] were 300 to 1000 nM and under 10 nM, respectively.

Regarding `CC(CCCn1ccc2cc(-c3ncc(C(F)(F)F)cn3)cnc2c1=O)Nc1cn[nH]c(=O)c1C(F)(F)F` (stereo not drawn) [Example 250], the IC50 in experiment [3] was over 3000 nM; in experiment [2], 10 to 30 nM.

Consider `CC(CCNC(=O)c1n[nH]c2c1CCN(c1ncc(C(F)(F)F)cn1)C2)Nc1cn[nH]c(=O)c1C(F)(F)F` (stereo not drawn) [Example 8], for which the figures for the IC50 in experiment [3] and in experiment [2] were over 3000 nM and 10 to 30 nM, respectively.

Turning to `Cc1cccc(NC(=O)[C@@H](CCCNC(=O)c2ccc(-c3ncc(C(F)(F)F)s3)cc2)Nc2cn[nH]c(=O)c2C(F)(F)F)n1` [Example 257], the IC50 in experiment [3] is under 300 nM; in experiment [2], under 10 nM.

`NC(=O)c1cccc2cn(CCCn3ccc4cc(-c5ncc(C(F)(F)F)cn5)c(F)cc4c3=O)nc12` [Example 254]: the IC50 in experiment [2] was over 100 nM.

As to `Cc1cc(NCCCC(C)NC(=O)c2cnc(-c3ncc(C(F)(F)F)cn3)cn2)c(C#N)c(=O)[nH]1` (stereo not drawn) [Example 49], the IC50 is 30 to 100 nM in experiment [1] and over 100 nM in experiment [2].

For `O=C(NCCC[C@@H](Nc1cn[nH]c(=O)c1C(F)(F)F)C(=O)N1CCSCC1)c1ccc(-c2ncc(C(F)(F)F)s2)cc1` [Example 236], the IC50 lay in the range of 300 to 1000 nM in experiment [3] and 10 to 30 nM in experiment [2].

`CC(CCCNC(=O)c1ccc(-c2cc(C(F)(F)F)sn2)cc1)Nc1cn[nH]c(=O)c1C(F)(F)F` (stereo not drawn) [Example 83]: the IC50 was under 300 nM in experiment [3] and under 10 nM in experiment [2].

`N#CC1CCN(C(=O)C(CCCNC(=O)c2ccc(-c3ncc(C(F)(F)F)s3)cc2)Nc2cn[nH]c(=O)c2C(F)(F)F)C1` (stereo not drawn) [Example 261]: the figures for the IC50 in experiment [3] and in experiment [2] were 300 to 1000 nM and 30 to 100 nM, respectively.

For `CC(CCCN(C)C(=O)c1cnc(N2CCN(C3CC3)CC2)cn1)Nc1cn[nH]c(=O)c1C(F)(F)F` (stereo not drawn) [Example 37], the IC50 in experiment [1] and in experiment [2] was over 100 nM in each case.
